{"source": "patent US12472247B2", "about": "“Immune adjuvant comprising hepatitis B virus-derived polypeptide” (priority 2020, dated 2025)", "key": {"HBV": {"system": "HBV", "assay": "anti-HBV effect in HBV-carrier mouse models (hydrodynamic injection)", "type": "in vivo, hepatitis B virus"}, "[1]": {"system": "dendritic cells differentiated from mouse bone marrow cells", "assay": "inflammatory cytokines secreted by dendritic cells (ELISA)", "type": "cell-based", "settings": "Poly6 0.1, 0.5, 1 μM, 24 hours", "protocol": "(§1) The femur and tibia of C57BL/6 mice were isolated, and bone marrow cells therein were isolated. The isolated bone marrow cells were cultured in IMDM medium (supplemented with IL-4 and GM-CSF) to induce differentiation of dendritic cells. After culturing for 6 days, dendritic cells having 80% or more of CD11c markers were used in the experiment (FIG. 3).\nWhen dendritic cells were treated with Poly6 peptides at concentrations of 0.1 μM, 0.5 μM, and 1 μM for 24 hours, inflammatory cytokines TNF-α, IL-6, and IL-12p40 secreted by dendritic cells were confirmed by ELISA."}, "[2]": {"system": "dendritic cells differentiated from mouse bone marrow cells", "assay": "maturation markers of dendritic cells by FACS", "type": "cell-based", "settings": "Poly6 0.1, 0.5, 1 μM, 24 hours", "protocol": "as §1\nDendritic cells differentiated from mouse bone marrow cells were treated with Poly6 peptides at each concentration of 0.1 μM, 0.5 μM, and 1 μM and cultured for 24 hours, and then expression of representative maturation markers CD80, CD86, and MHC I, and a migration marker CCR7 of dendritic cells were confirmed by fluorescence activated cell sorting (FACS)."}, "[3]": {"system": "peripheral blood mononuclear cells (PBMC)", "assay": "IFN-γ-expressing T cells in PBMC treated with Poly6", "type": "cell-based", "settings": "human PBMC, IL-2 three days, Poly6 at various concentrations"}, "dendritic cells": {"system": "dendritic cells", "assay": "migration of Poly6-treated dendritic cells to lymph nodes after footpad injection", "type": "in vivo, mouse", "settings": "for ability of activated dendritic cells to migrate to the lymph nodes: 0.1 μM of Poly6, 0.1 μg/ml of LPS, vs DCs without any treatment", "protocol": "Dendritic cells activated by treatment with Poly6 peptides for 24 hours were fluorescently labeled (CFSE) and injected into C57BL/6 mice by footpad injection, and after 3 days, the inguinal lymph nodes of the mice were extracted to confirm numbers of labeled dendritic cells."}}, "note": "“Also recorded” adds a separate entry of the source."}
{"substance": "GRLVFQ (poly6 peptide)", "values": [{"measurement": "anti-HBV effects", "setting": "HBV", "result": "anti-HBV effects in HBV-carrier mouse models were also observed"}, {"measurement": "anti-HIV-1 effects", "setting": "HIV-1", "result": "showed anti-HIV-1 effects"}, {"measurement": "amounts of TNF-α, IL-6, and IL-12p40 secreted by dendritic cells", "setting": "[1]", "result": "amounts of TNF-α, IL-6, and IL-12p40 secreted by dendritic cells increased"}, {"measurement": "expression level of the maturation markers of dendritic cells (CD80, CD86, MHC I, CCR7)", "setting": "[2]", "result": "increased as the concentration of treated Poly6 increased"}, {"measurement": "IFN-γ-expressing T cells", "setting": "[3]", "result": "significantly increased IFN-γ-expressing T cells compared to a group treated with PBS; also recorded: concentration-dependent trend was also observed"}, {"measurement": "ability of activated dendritic cells to migrate to the lymph nodes", "setting": "dendritic cells", "result": "have an ability to migrate to the lymph nodes on their own"}, {"measurement": "numbers of dendritic cells found in the lymph nodes", "setting": "dendritic cells; DCs treated with 0.1 μM Poly6, footpad injection, 3 days, vs untreated DCs", "result": "increased statistically significantly"}]}
{"substance": "lipopolysaccharide [LPS, reference compound]", "values": [{"measurement": "ability of activated dendritic cells to migrate to the lymph nodes", "setting": "dendritic cells", "result": "have an ability to migrate to the lymph nodes on their own"}]}
